Results reported in US20060276464A1, “Diarylsulfone sulfonamides and use thereof” (Wyeth, priority 2005, published 2006).
“And” between values parts separate entries of the source, which are not always exact repeats. Identical values can stand only once. Like-named read-outs stand apart in the source and are kept apart here.

Columns and labels:
SFRP-1 [1] = target: T1, SFRP-1 (Homo sapiens, UniProt Q8N474); experiment: Cell-based assay for in vitro measurement of SFRP-1/SARP2 antagonist activity (U2OS cells co-transfected with 16x TCF-tk-Luciferase reporter, Wnt and hSFRP-1); details: for fold induction at 10 µM / fold induction at 15 µM: U2OS; for fold induction at 10 µM: read-out: Fold Induction with SFRP-1, U2OS cells, single dose 10 μM, luciferase reporter, fold induction over SFRP-1 control;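 on all read-outs here: U2OS cells co-transfected with a TCF-tk luciferase reporter, a Wnt vector, hSFRP-1 or empty vector and CMV-βgal, luciferase luminescence read in cell lysates alongside βgal activity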
T1 sequence (Q8N474 32-314): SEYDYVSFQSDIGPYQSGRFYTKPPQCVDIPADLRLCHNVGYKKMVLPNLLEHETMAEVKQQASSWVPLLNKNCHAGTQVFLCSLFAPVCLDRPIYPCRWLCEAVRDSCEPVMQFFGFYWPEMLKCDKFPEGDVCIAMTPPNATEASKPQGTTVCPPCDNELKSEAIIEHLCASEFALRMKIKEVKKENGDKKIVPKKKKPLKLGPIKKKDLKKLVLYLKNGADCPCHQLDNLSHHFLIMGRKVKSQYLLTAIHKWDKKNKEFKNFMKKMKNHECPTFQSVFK

SFRP-1 [2] = target: T1, SFRP-1; experiment: Fluorescence polarization binding assay (competitive displacement of a probe compound from SFRP-1); details: fluorescence anisotropy, 45 nM SFRP-1, 20 nM probe;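 further: test compound competes with a fluorescent probe held by SFRP-1, seen as a drop in probe anisotropy after incubation in darkness, with anisotropy as function of rising compound dose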
[3] = read-out: Fold Induction with SFRP-1, Conc 15 μM, single dose, luciferase reporter, fold induction over SFRP-1 control, cells with SFRP-1
[4] = read-out: Fold Induction without SFRP-1, Conc 15 μM, single dose, luciferase reporter, cells without SFRP-1 (specificity control)
[5] = read-out: Fold Induction with SFRP-1, Conc 15 μM, with SFRP-1, fold induction over SFRP-1 control, single dose
[6] = read-out: Fold Induction without SFRP-1, Conc 15 μM, without SFRP-1, single dose

SMILES: CC(C)c1ccc(S(=O)(=O)c2ccc(F)cc2)cc1S(=O)(=O)NC1CCN(C(=S)Nc2cccc3ccccc23)CC1 [Example 690, 4-[({5-[(4-fluorophenyl)sulfonyl]-2-isopropylphenyl}sulfonyl)amino]-N-1-naphthylpiperidine-1-carbothioamide]
- EC50 (SFRP-1 [1]): 8400 nM
- fold induction at 10 µM (SFRP-1 [1]): 2.3
- IC50 (SFRP-1 [2]): 3000 nM

SMILES: CN(CCCNS(=O)(=O)c1cc(S(=O)(=O)c2ccccc2)ccc1C(F)(F)F)C(=O)NC1CCN(C(=O)OC(C)(C)C)CC1 [Example 955]
- EC50 (SFRP-1 [1]): 5160 nM
- fold induction at 10 µM (SFRP-1 [1]): 2.4
- IC50 (SFRP-1 [2]): 6000 nM

SMILES: O=C(O)CCC(=O)N1CCC(CNS(=O)(=O)c2cc(S(=O)(=O)c3ccccc3)ccc2C(F)(F)F)CC1 [Example 902, 4-oxo-4-{4-[({[5-(phenylsulfonyl)-2-(trifluoromethyl)phenyl]sulfonyl}amino)methyl]piperidin-1-yl}butanoic acid]
- EC50 (SFRP-1 [1]): 636 nM
- fold induction at 10 µM (SFRP-1 [1]): 3
- IC50 (SFRP-1 [2]): 180 nM

SMILES: C[C@@H](NS(=O)(=O)c1cc(S(=O)(=O)c2ccccc2)ccc1C(F)(F)F)[C@H](O)c1ccccc1 (relative stereo) [Example 684, N-[(1R*,2R*)-2-hydroxy-1-methyl-2-phenylethyl]-5-(phenylsulfonyl)-2-(trifluoromethyl)benzenesulfonamide]
- EC50 (SFRP-1 [1]): 29300 nM
- fold induction at 10 µM (SFRP-1 [1]): 1.7
- IC50 (SFRP-1 [2]): 1000 nM

SMILES: CC(C)c1ccc(S(=O)(=O)c2ccc(F)cc2)cc1S(=O)(=O)NCCc1ccncc1 [Example 533, 5-[(4-fluorophenyl)sulfonyl]-2-isopropyl-N-(2-pyridin-4-ylethyl)benzenesulfonamide]
- fold induction at 15 µM (SFRP-1 [1]; [3]): 3.7
- fold induction at 15 µM (SFRP-1 [1]; [4]): 1.1
- IC50 (SFRP-1 [2]): 500 nM

SMILES: CC(C)c1ccc(S(=O)(=O)c2ccccc2)cc1S(=O)(=O)NCCc1ccccc1 [Example 295, 2-isopropyl-N-(2-phenylethyl)-5-(phenylsulfonyl)benzenesulfonamide]
- fold induction at 15 µM (SFRP-1 [1]; [5]): 2.7
- fold induction at 15 µM (SFRP-1 [1]; [6]): 1.5
- IC50 (SFRP-1 [2]): 300 nM

SMILES: Cc1nccn1CCNS(=O)(=O)c1cc(S(=O)(=O)c2ccc(F)cc2)ccc1C(C)C [Example 583, 5-[(4-fluorophenyl)sulfonyl]-2-isopropyl-N-[2-(2-methyl-1H-imidazol-1-yl)ethyl]benzenesulfonamide]
- fold induction at 15 µM (SFRP-1 [1]; [3]): 3.9
- fold induction at 15 µM (SFRP-1 [1]; [4]): 1.1
- IC50 (SFRP-1 [2]): 300 nM

SMILES: Cc1ccc(S(=O)(=O)c2ccc(NCCC#N)cc2)cc1S(=O)(=O)NCCCn1ccnc1 [Example 353, 5-({4-[(2-cyanoethyl)amino]phenyl}sulfonyl)-N-[3-(1H-imidazol-1-yl)propyl]-2-methylbenzenesulfonamide]
- fold induction at 15 µM (SFRP-1 [1]; [5]): 3.3
- fold induction at 15 µM (SFRP-1 [1]; [6]): 1.1
- IC50 (SFRP-1 [2]): 300 nM

SMILES: O=S(=O)(N[C@H]1CC[C@H](O)CC1)c1cc(S(=O)(=O)c2ccccc2)ccc1C(F)(F)F [Example 1013, N-(trans-4-hydroxycyclohexyl)-5-(phenylsulfonyl)-2-(trifluoromethyl)benzenesulfonamide]
- EC50 (SFRP-1 [1]): 277 nM
- IC50 (SFRP-1 [2]): 158 nM

SMILES: COc1ccccc1OC(=O)N1CCC(NS(=O)(=O)c2cc(S(=O)(=O)c3ccccc3)ccc2C)CC1 [Example 489, 2-methoxyphenyl 4-({[2-methyl-5-(phenylsulfonyl)phenyl]sulfonyl}amino)piperidine-1-carboxylate]
- fold induction at 15 µM (SFRP-1 [1]; [3]): 2.4
- fold induction at 15 µM (SFRP-1 [1]; [4]): 1.1
- IC50 (SFRP-1 [2]): 1000 nM

SMILES: CN(CCNS(=O)(=O)c1cc(S(=O)(=O)c2ccccc2)ccc1C(F)(F)F)C(=O)NC1CCN(C(=O)OC(C)(C)C)CC1 [Example 866]
- fold induction at 10 µM (SFRP-1 [1]): 4.6
- IC50 (SFRP-1 [2]): 800 nM

SMILES: CN(CCNS(=O)(=O)c1cc(S(=O)(=O)c2ccccc2)ccc1C(F)(F)F)C(=O)c1ccc(CP(=O)(O)O)cc1 [Example 1036, [4-({methyl[2-({[5-(phenylsulfonyl)-2-(trifluoromethyl)phenyl]sulfonyl}amino)ethyl]amino}carbonyl)benzyl]phosphonic acid]
- EC50 (SFRP-1 [1]): 7640 nM
- IC50 (SFRP-1 [2]): 800 nM

SMILES: CC(C)c1ccc(S(=O)(=O)c2ccc(F)cc2)cc1S(=O)(=O)NCCc1c[nH]cn1 [Example 442, 5-[(4-fluorophenyl)sulfonyl]-N-[2-(1H-imidazol-4-yl)ethyl]-2-isopropylbenzenesulfonamide]
- fold induction at 15 µM (SFRP-1 [1]; [5]): 3.9
- fold induction at 15 µM (SFRP-1 [1]; [6]): 1
- IC50 (SFRP-1 [2]): 1000 nM

SMILES: O=C(O)c1ccc2c(c1)CC(NS(=O)(=O)c1cc(S(=O)(=O)c3ccccc3)ccc1C(F)(F)F)C2 (centres unmarked) [Example 1082, 2-({[5-(phenylsulfonyl)-2-(trifluoromethyl)phenyl]sulfonyl}amino)indane-5-carboxylic acid]
- EC50 (SFRP-1 [1]): 289 nM
- IC50 (SFRP-1 [2]): 16 nM

SMILES: CS(=O)(=O)Nc1ccc(CCNS(=O)(=O)c2cc(S(=O)(=O)c3ccccc3)ccc2C(F)(F)F)cc1 [Example 987, N-(2-{4-[(methylsulfonyl)amino]phenyl}ethyl)-5-(phenylsulfonyl)-2-(trifluoromethyl)benzenesulfonamide]
- EC50 (SFRP-1 [1]): 231 nM
- IC50 (SFRP-1 [2]): 140 nM

SMILES: COc1cccc(S(=O)(=O)c2ccc(C(F)(F)F)c(S(=O)(=O)NCCC#N)c2)c1 [Example 745, N-(2-cyanoethyl)-5-[(3-methoxyphenyl)sulfonyl]-2-(trifluoromethyl)benzenesulfonamide]
- EC50 (SFRP-1 [1]): 631 nM
- fold induction at 10 µM (SFRP-1 [1]): 4.5
- IC50 (SFRP-1 [2]): 400 nM

SMILES: CC(C)c1ccc(S(=O)(=O)c2ccccc2)cc1S(=O)(=O)NCCCn1ccnc1 [Example 296, N-[3-(1H-imidazol-1-yl)propyl]-2-isopropyl-5-(phenylsulfonyl)benzenesulfonamide]
- fold induction at 15 µM (SFRP-1 [1]; [5]): 3.3
- fold induction at 15 µM (SFRP-1 [1]; [6]): 1.4
- IC50 (SFRP-1 [2]): 200 nM

SMILES: COc1ccc(CNS(=O)(=O)c2cc(S(=O)(=O)c3ccccc3)ccc2C(F)(F)F)c(OC)c1 [Example 1021, N-(2,4-dimethoxybenzyl)-5-(phenylsulfonyl)-2-(trifluoromethyl)benzenesulfonamide]
- EC50 (SFRP-1 [1]): > 10000 nM
- IC50 (SFRP-1 [2]): 200 nM

SMILES: CC(C)NC(=O)CN1CCC(NS(=O)(=O)c2cc(S(=O)(=O)c3ccccc3)ccc2C(F)(F)F)CC1 [Example 1086, N-isopropyl-2-[4-({[5-(phenylsulfonyl)-2-(trifluoromethyl)phenyl]sulfonyl}amino)piperidin-1-yl]acetamide]
- EC50 (SFRP-1 [1]): 492 nM
- IC50 (SFRP-1 [2]): 270 nM

SMILES: CC(C)c1ccc(S(=O)(=O)c2ccc(N3CCN(C)CC3)cc2)cc1S(=O)(=O)NC1CCOCC1 [Example 547, 2-isopropyl-5-{[4-(4-methylpiperazin-1-yl)phenyl]sulfonyl}-N-(tetrahydro-2H-pyran-4-yl)benzenesulfonamide]
- fold induction at 15 µM (SFRP-1 [1]; [3]): 3.7
- fold induction at 15 µM (SFRP-1 [1]; [4]): 1.3
- IC50 (SFRP-1 [2]): 1000 nM and 2500 nM

SMILES: CCN(CC)C(=O)N(C)CCNS(=O)(=O)c1cc(S(=O)(=O)c2ccccc2)ccc1C(F)(F)F [Example 834, N-{2-[[(diethylamino)carbonyl](methyl)amino]ethyl}-5-(phenylsulfonyl)-2-(trifluoromethyl)benzenesulfonamide]
- EC50 (SFRP-1 [1]): 1490 nM
- fold induction at 10 µM (SFRP-1 [1]): 3
- IC50 (SFRP-1 [2]): 400 nM

SMILES: CNc1ccc(S(=O)(=O)c2ccc(C(C)C)c(S(=O)(=O)NCCc3ccccn3)c2)cc1 [Example 357, 2-isopropyl-5-{[4-(methylamino)phenyl]sulfonyl}-N-(2-pyridin-2-ylethyl)benzenesulfonamide]
- fold induction at 15 µM (SFRP-1 [1]; [5]): 4.2
- fold induction at 15 µM (SFRP-1 [1]; [6]): 1.1
- IC50 (SFRP-1 [2]): 300 nM
